Test system: area of the skin in need of beautifying
Assay: Topical administration of beta-ionol analog to human skin
Format: in vivo
Details: daily treatments, after two weeks
Experimental: A Beta-ionol analog, melafleur alcohol, is administered topically to a human directly onto an area of the skin in need of beautifying.

CC1(C)CCCC2=C1CC(CO)CC2 (stereo not shown) [melafleur alcohol, 2-Naphthalenemethanol, 1,2,3,4,5,6,7,8-octahydro-8,8-dimethyl-]
health and vitality of treated areas of the skin: increased health and vitality

Reference: patent US20040131648A1, “Nuclear hormone receptor compounds, products and methods employing same” (The Procter & Gamble Company, priority 2002, published 2004)
